What is called IC50 is the concentration that inhibits the measured activity by half. Read a high IC50 as a need for much substance.

What all share (format): cell-based
The subject of data set [1] is Bel-7404 (human liver carcinoma). Kind of data set: MTT antiproliferative/cytotoxicity assay, Bel-7404. The settings on record: mean of three independent determinations. On the procedure: (§1) Melting points were determined on an X4 apparatus (Beijing Tech Instrument Co. Ltd., Beijing, China) and were uncorrected. The ^1H and ^13C NMR spectra were recorded in CDCl3 on a Bruker AV-600 spectrometer at working frequencies of 600 and 150 MHz and a Bruker AV-300 spectrometer at working frequencies of 300 and 75 MHz, respectively. Chemical shifts are expressed in parts per million (δ) values and coupling constants (J) in Hertz. Infrared spectra were measured with a Thermo Scientific Nicolet IS-10 Spectrophotometer (Thermo Scientific, USA). HREIMS was measured on an Agilent 6210 TOFMS instrument (Agilent Technologies, USA). The cell proliferation assay was undertaken by a MTT method using 96-well plates on a […] MK3 analysis spectrometer (Thermo Scientific, Shanghai, China).
(§2) The detailed procedure had been reported in our previous work.

The subject of data set [2] is HeLa (human cervical carcinoma). The data set can be described thus: MTT antiproliferative/cytotoxicity assay, HeLa. The following applies: mean of three independent determinations. On the procedure:
as §1, §2

Data set [3] can be described thus: MTT cytotoxicity assay, 293T normal cells. The settings on record: human, HEK-293T normal kidney epithelial cells, mean of three independent determinations. On the procedure:
as §1, §2
For orientation: Tetrazolium assays rely on reduction of a dye to a coloured formazan, in cell work by metabolically active cells.

With `CC12CCC3c4ccc(O)cc4CCC3C1CCC2=NNC(N)=S` (centres unmarked) [Compound 1], the IC50 in data set [1] came out at 19 µM; in data set [2] it was 34 µM.
Take `CC(=O)Oc1ccc2c(c1)CCC1C2CCC2(C)C(=NNC(N)=S)CCC12` (centres unmarked) [Compound 2]: the results for the IC50 in data set [3], in data set [1] and in data set [2] were over 200 µM, over 200 µM and 42 µM, respectively.

These data come from PMC5664251, “Synthesis and Cytotoxic Evaluation of Steroidal Copper (Cu (II)) Complexes” (Bioinorganic Chemistry and Applications, 2017).
